Patent publication US20240294499A1, “TARGETED PROTEIN DEGRADATION USING BIFUNCTIONAL COMPOUNDS THAT BIND UBIQUITIN LIGASE AND TARGET MCL-1 PROTEIN” (Captor Therapeutics S.A., priority 2021, published 2024)

Tests used:
[1] = target: [MCL-1]-[compound of formula (I)]-[CRBN/DDB1] complex (Homo sapiens, UniProt Q07820+Q96SW2); assay: AlphaLISA dose response ternary complex formation assay; assay type: binding; conditions: for EC50: read-out: AlphaLISA dose response Average pEC50 by molecule (converted)
Sequence of [MCL-1]-[compound of formula (I)]-[CRBN/DDB1] complex (Q07820 whole entry): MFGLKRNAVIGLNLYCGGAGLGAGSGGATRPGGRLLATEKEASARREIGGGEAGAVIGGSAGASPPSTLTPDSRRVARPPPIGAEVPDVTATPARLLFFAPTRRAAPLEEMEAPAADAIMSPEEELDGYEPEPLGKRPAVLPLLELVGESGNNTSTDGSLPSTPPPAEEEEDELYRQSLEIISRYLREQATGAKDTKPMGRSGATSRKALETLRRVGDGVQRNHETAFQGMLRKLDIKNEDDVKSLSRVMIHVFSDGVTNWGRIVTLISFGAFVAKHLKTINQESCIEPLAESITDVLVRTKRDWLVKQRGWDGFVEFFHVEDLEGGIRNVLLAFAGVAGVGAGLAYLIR
Sequence of [MCL-1]-[compound of formula (I)]-[CRBN/DDB1] complex (Q96SW2 whole entry): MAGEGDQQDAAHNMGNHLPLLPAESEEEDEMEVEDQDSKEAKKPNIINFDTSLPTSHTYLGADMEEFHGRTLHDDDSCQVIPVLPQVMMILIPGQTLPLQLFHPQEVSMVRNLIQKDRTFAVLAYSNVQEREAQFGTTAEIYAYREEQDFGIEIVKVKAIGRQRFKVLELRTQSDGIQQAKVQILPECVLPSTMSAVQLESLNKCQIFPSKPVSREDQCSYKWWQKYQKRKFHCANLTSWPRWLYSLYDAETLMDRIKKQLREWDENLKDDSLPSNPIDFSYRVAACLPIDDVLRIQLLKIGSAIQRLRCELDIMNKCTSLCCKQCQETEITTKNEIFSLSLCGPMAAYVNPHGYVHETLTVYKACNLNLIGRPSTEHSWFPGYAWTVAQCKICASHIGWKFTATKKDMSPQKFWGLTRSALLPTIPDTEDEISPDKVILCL
Sequence of [MCL-1]-[compound of formula (I)]-[CRBN/DDB1] complex (Q16531 whole entry partner): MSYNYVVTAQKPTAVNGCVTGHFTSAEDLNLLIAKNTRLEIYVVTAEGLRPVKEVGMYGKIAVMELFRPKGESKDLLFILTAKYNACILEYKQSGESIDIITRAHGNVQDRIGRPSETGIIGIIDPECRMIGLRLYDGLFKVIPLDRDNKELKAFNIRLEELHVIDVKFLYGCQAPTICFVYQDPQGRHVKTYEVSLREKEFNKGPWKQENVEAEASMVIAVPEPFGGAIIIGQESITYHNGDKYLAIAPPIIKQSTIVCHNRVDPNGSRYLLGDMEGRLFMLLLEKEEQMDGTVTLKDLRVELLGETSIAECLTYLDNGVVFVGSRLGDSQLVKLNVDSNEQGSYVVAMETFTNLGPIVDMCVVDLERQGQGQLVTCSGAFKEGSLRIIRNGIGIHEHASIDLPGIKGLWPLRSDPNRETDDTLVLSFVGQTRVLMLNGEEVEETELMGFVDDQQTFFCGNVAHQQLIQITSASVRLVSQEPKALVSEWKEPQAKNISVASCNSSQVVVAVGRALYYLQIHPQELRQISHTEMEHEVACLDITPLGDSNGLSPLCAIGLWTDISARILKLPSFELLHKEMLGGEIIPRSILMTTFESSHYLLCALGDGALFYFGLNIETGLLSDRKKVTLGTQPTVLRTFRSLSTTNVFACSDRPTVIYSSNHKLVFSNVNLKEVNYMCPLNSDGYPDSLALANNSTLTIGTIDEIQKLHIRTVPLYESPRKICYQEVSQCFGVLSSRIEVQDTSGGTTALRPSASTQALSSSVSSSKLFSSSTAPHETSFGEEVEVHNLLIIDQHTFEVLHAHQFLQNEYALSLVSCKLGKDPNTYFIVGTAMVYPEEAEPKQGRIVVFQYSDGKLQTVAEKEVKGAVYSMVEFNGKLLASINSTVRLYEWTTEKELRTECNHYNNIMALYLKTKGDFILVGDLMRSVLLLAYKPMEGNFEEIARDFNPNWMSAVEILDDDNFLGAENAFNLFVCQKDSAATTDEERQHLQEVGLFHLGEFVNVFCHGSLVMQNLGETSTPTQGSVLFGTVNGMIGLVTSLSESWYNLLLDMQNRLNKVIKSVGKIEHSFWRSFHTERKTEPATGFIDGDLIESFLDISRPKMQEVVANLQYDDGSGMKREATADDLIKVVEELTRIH
Outline: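 EC50 comes from dose–response of AlphaLISA luminescence (excitation 680, emission 615 nm), normalised between DMSO background and an internal positive control, with concentrations past the hook point dropped. Ternary complex formed by mixing bead-bound biotin-hMCL-1 and His-CRBN/DDB1 (protein solutions 40 and 200 nM) with compound in 2% DMSO, 30 min, 25 °C.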

MV-4-11 cells = assay: Cell viability assay (CellTiter-Glo), MV-4-11; assay type: cell-based; conditions: 1% FBS; for IC50: Homo sapiens, MV4-11, 24 hours incubation, read-out: Average pIC50 by molecule MV-4-11 (converted)
Outline: (§1)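 OPM-2, MV-4-11 and ARH-77 cells were grown in medium with 1% FBS and treated with compound in 1/3 dilutions from 30 uM (9–12 points, 0.5% DMSO). Viability was read by CellTiter-Glo luminescence after 24 hours and normalized to DMSO control.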

MCL-1 protein = MCL-1 protein (Homo sapiens, UniProt Q07820); assay: OPM-2 cells: MCL-1 protein degradation, Simple Western; assay type: cell-based; design: endogenous in cells; host or cells: OPM-2; conditions: OPM-2 cell line, 6 h treatment, 100 nM compound, vs DMSO
Sequence of MCL-1 protein (Q07820 whole entry): as the sequence (Q07820 whole entry) above
Source text: The effect of various compounds of the invention and the reference compounds on MCL-1protein degradation in the OPM-2 cell line was investigated, using the degradation assay protocol below.
OPM-2 cells were maintained in RPMI-1640 medium, supplemented with penicillin/streptomycin and 10% Fetal Bovine Serum (FBS). During the treatment, FBS concentration was reduced to 1%.
Compound stocks were pre-diluted in DMSO and added directly to the cells growth medium (final DMSO concentration: 0.5%).
OPM-2 cells were collected, centrifuged (250 rcf, 5 min), resuspended in a growth medium containing 1% FBS and counted. The cell suspension was then adjusted to 1×10^6 cell/ml using a growth medium containing 1% FBS. Afterwards, 0.5×10^6 cells were seeded on 24-well plates in 0.5 mL of medium per well. Immediately after seeding cells, compounds in appropriate concentrations were added to the cell culture medium.
Following the treatment with the compounds, cells were collected from the plates and suspended in a lysis buffer (2% SDS, 50 mM Tris, pH 8.0, 100 U/ml Pierce Universal Nuclease for Cell Lysis, cOmplete EDTA-free Protease Inhibitor Cocktail) and incubated on ice for 45 min.
The following steps, including sample loading, protein separation, immunoprobing or labelling, washes and detection analysis was performed using Jess from ProteinSimple, an automatic system for analyzing protein levels in cell lysates (12-230 kDa Jess or Wes separation module 8×25 capillaries, protein normalization assay, no. SM-PN01-1). The Protein of Interest was detected using MCL-1 (D35A5) Rabbit monoclonal antibody (Cell Signaling, #5453, LOT: 4). Antibody was diluted in a ratio of 1:100 in Antibody diluent.
[%] of protein reduction is calculated in comparison to the cells treated with DMSO, which stand for 0%.
The results for the 6 h treatment with 100 nM compounds are shown in Table 9, using the following labels: • <20% for 0-19% of MCL-1 protein reduction, • ≥20% for 20-39% of MCL-1 protein reduction, • ≥40% for 40-100% of MCL-1 protein reduction.

DMS 114 cells = assay: Cell viability assay (CellTiter-Glo), DMS 114; assay type: cell-based; conditions: 72 hours incubation, 10% FBS; for IC50: Homo sapiens, DMS-114, 72 h, read-out: Average pIC50 by molecule DMS 114 (converted)
Source text: The effect of various compounds of the invention on the viability of DMS 114 cell line was investigated, using the CTG protocol described below.
DMS 114 cell line is derived from small-cell lung cancer, which is described in the literature as MCL-1 dependent lines [Yasuda Y et al. Cell Death & Disease 2020; 11: 177].
DMS 114 cells were detached with trypsin and then resuspended in growth medium containing 10% FBS and counted. Cell suspension was then adjusted to 5×10^4 cells/ml using growth medium containing 10% FBS. Afterwards, […] were seeded on 384-well plates (50 μl). Plates were then placed in the incubator overnight until treated. Next day, compounds were added using ECHO 555 liquid handler. Compound concentrations used in this assay: 1/3 dilutions starting at 30 uM (9 to 12 points).
After 72 hours of incubation, cell viability was evaluated using CellTiter-Glo Luminescent Cell Viability Assay (Promega, cat #G7572). Luminescence signal was measured using a CLARIOstar Plus Multi-Mode Microplate Reader (574-590 nm).

ARH-77 cells = assay: Cell viability assay (CellTiter-Glo), ARH-77; assay type: cell-based; conditions: 1% FBS; for IC50: Homo sapiens, ARH-77, 24 hours incubation, read-out: Average pIC50 by molecule ARH-77 (converted)
Outline: as §1

Row | SMILES | EC50 [1] [nM] | IC50 (MV-4-11 cells) [nM] | Simple Western, % of protein reduction (MCL-1 protein) [%] | IC50 (DMS 114 cells) [nM] | IC50 (ARH-77 cells) [nM] | further results
1 | Cc1ccc2c(CCCOc3cccc4ccccc34)c(C(=O)O)n(CCN3CCN(C(=O)COc4cccc5c4C(=O)N(C4CCC(=O)NC4=O)C5=O)CC3)c2c1-c1c(C)nn(C)c1C (stereo not drawn) [Compound 217, 1-(2-(4-(2-((2-(2,6-dioxopiperidin-3-yl)-1,3-dioxoisoindolin-4-yl)oxy)acetyl)piperazin-1-yl)ethyl)-6-methyl-3-(3-(naphthalen-1-yloxy)propyl)-7-(1,3,5-trimethyl-1H-pyrazol-4-yl)-1H-indole-2-carboxylic acid] | < 100 | ≤ 1000 | ≥40 |  |  | 
2 | Cc1nn(C)c(C)c1-c1c(Cl)ccc2c(CCCOc3cccc4cc(F)ccc34)c(C(=O)O)n(CCN3CCN(C(=O)Cn4c(C)nc5c(C(=O)NC6CCC(=O)NC6=O)cc(N)cc54)CC3)c12 (stereo not drawn) [Compound 275, 1-{2-[4-(2-{6-Amino-4-[(2,6-dioxopiperidin-3-yl)carbamoyl]-2-methyl-1H-1,3-benzodiazol-1-yl}acetyl)piperazin-1-yl]ethyl}-6-chloro-3-{3-[(6-fluoronaphthalen-1-yl)oxy]propyl}-7-(1,3,5-trimethyl-1H-pyrazol-4-yl)-1H-indole-2-carboxylic acid] | < 100 | ≤ 100 |  | ≤ 3160 | > 10000 | 
3 | Cc1nn(C)c(C)c1-c1c(Cl)ccc2c(CCCOc3cccc4cc(F)ccc34)c(C(=O)O)n(CCN3CCN(C(=O)Cn4c(C)nc5c(C(=O)NC6CCC(=O)NC6=O)cc(F)cc54)CC3)c12 (stereo not drawn) [Compound 278, 6-Chloro-1-{2-[4-(2-{4-[(2,6-dioxopiperidin-3-yl)carbamoyl]-6-fluoro-2-methyl-1H-1,3-benzodiazol-1-yl}acetyl)piperazin-1-yl]ethyl}-3-{3-[(6-fluoronaphthalen-1-yl)oxy]propyl}-7-(1,3,5-trimethyl-1H-pyrazol-4-yl)-1H-indole-2-carboxylic acid] | < 100 | ≤ 100 |  | ≤ 3160 | > 10000 | 
4 | COc1cc(C(=O)NC2CCC(=O)NC2=O)c2nc(C)n(CC(=O)N3CCN(CCn4c(C(=O)O)c(CCCOc5cccc6cc(F)ccc56)c5ccc(Cl)c(-c6c(C)nn(C)c6C)c54)CC3)c2c1 (stereo not drawn) [Compound 277, 6-Chloro-1-{2-[4-(2-{4-[(2,6-dioxopiperidin-3-yl)carbamoyl]-6-methoxy-2-methyl-1H-1,3-benzodiazol-1-yl}acetyl)piperazin-1-yl]ethyl}-3-{3-[(6-fluoronaphthalen-1-yl)oxy]propyl}-7-(1,3,5-trimethyl-1H-pyrazol-4-yl)-1H-indole-2-carboxylic acid] | < 100 | ≤ 100 |  | ≤ 3160 | > 10000 | 
5 | Cc1nn(C)c(C)c1-c1c(Cl)ccc2c(CCCOc3cccc4cc(F)ccc34)c(C(=O)O)n(CCN3CCN(C(=O)COc4cccc5c4CN(C4CCC(=O)NC4=O)C5=O)CC3)c12 (atropisomer, axis not shown; (Ra)) [Compound 294, (Ra)-6-Chloro-1-(2-(4-(2-((2-(2,6-dioxopiperidin-3-yl)-1-oxoisoindolin-4-yl)oxy)acetyl)piperazin-1-yl)ethyl)-3-(3-((6-fluoronaphthalen-1-yl)oxy)propyl)-7-(1,3,5-trimethyl-1H-pyrazol-4-yl)-1H-indole-2-carboxylic acid] |  |  |  |  |  | AlphaLISA dose response Average pEC50 by molecule [1]: >7; Average pIC50 by molecule MV-4-11 (MV-4-11 cells; 24 hours incubation): ≥7.5; Average pIC50 by molecule DMS 114 (DMS 114 cells): ≥6.0; Average pIC50 by molecule ARH-77 (ARH-77 cells; 24 hours incubation): <5.0
6 | Cc1nn(C)c(COc2ccc(N3CCN(S(=O)(=O)N(C)C)CC3)cc2)c1-c1cccc2c(CCCOc3cccc4ccccc34)c(C(=O)O)n(CCN3CCN(C(=O)CNc4cccc5c4C(=O)N(C4CCC(=O)NC4=O)C5=O)CC3)c12 (stereo not drawn) [Compound 245, 7-(5-((4-(4-(N,N-dimethylsulfamoyl)piperazin-1-yl)phenoxy)methyl)-1,3-dimethyl-1H-pyrazol-4-yl)-1-(2-(4-((2-(2,6-dioxopiperidin-3-yl)-1,3-dioxoisoindolin-4-yl)glycyl)piperazin-1-yl)ethyl)-3-(3-(naphthalen-1-yloxy)propyl)-1H-indole-2-carboxylic acid] | < 1000 |  | ≥20 |  |  | 
7 | Cc1nn(C)c(COc2ccc(N3CCN(S(=O)(=O)N(C)C)CC3)cc2)c1-c1cccc2c(CCCOc3cccc4ccccc34)c(C(=O)O)n(CCN3CCN(C(=O)COc4cccc5c4CN(C4CCC(=O)NC4=O)C5=O)CC3)c12 (stereo not drawn) [Compound 249, 7-(5-((4-(4-(N,N-dimethylsulfamoyl)piperazin-1-yl)phenoxy)methyl)-1,3-dimethyl-1H-pyrazol-4-yl)-1-(2-(4-(2-((2-(2,6-dioxopiperidin-3-yl)-1-oxoisoindolin-4-yl)oxy)acetyl)piperazin-1-yl)ethyl)-3-(3-(naphthalen-1-yloxy)propyl)-1H-indole-2-carboxylic acid] | < 100 | ≤ 1000 | ≥20 |  |  | 
8 | Cc1c(-c2c(-c3ccc(F)o3)sc3ncnc(O[C@H](Cc4ccccc4OCc4ccnn4CC(F)(F)F)C(=O)NS(=O)(=O)CCNC(=O)CCOCCOCCNc4cccc5c4C(=O)N(C4CCC(=O)NC4=O)C5=O)c23)ccc(OCCN2CCN(C)CC2)c1Cl (stereo partly drawn) [Compound 260, (2R)-2-[(5-{3-chloro-2-methyl-4-[2-(4-methylpiperazin-1-yl)ethoxy]phenyl}-6-(5-fluorofuran-2-yl)thieno[2,3-d]pyrimidin-4-yl)oxy]-N-(2-{3-[2-(2-{[2-(2,6-dioxopiperidin-3-yl)-1,3-dioxo-2,3-dihydro-1H-isoindol-4-yl]amino}ethoxy)ethoxy]propanamido}ethanesulfonyl)-3-(2-{[1-(2,2,2-trifluoroethyl)-1H-pyrazol-5-yl]methoxy}phenyl)propanamide] |  |  | ≥20 |  |  | 
9 | Cc1nc2c(C(=O)NC3CCC(=O)NC3=O)c(OCC(=O)N3CCN(CCn4c(C(=O)O)c(CCCOc5cccc6ccccc56)c5ccc(Cl)c(-c6c(C)nn(C)c6C)c54)CC3)ccc2[nH]1 (stereo not drawn) [Compound 264, 6-chloro-1-(2-(4-(2-((4-((2,6-dioxopiperidin-3-yl)carbamoyl)-2-methyl-1H-benzo[d]imidazol-5-yl)oxy)acetyl)piperazin-1-yl)ethyl)-3-(3-(naphthalen-1-yloxy)propyl)-7-(1,3,5-trimethyl-1H-pyrazol-4-yl)-1H-indole-2-carboxylic acid] |  |  | ≥20 |  |  | 
10 | Cc1nn(C)c(C)c1-c1c(F)ccc2c(CCCOc3cccc4ccccc34)c(C(=O)O)n(CCN3CCN(C(=O)COc4cccc5c4C(=O)N(C4CCC(=O)NC4=O)C5=O)CC3)c12 (stereo not drawn) [Compound 213, 1-{2-[4-(2-{[2-(2,6-dioxopiperidin-3-yl)-1,3-dioxo-2,3-dihydro-1H-isoindol-4-yl]oxy}acetyl)piperazin-1-yl]ethyl}-6-fluoro-3-[3-(naphthalen-1-yloxy)propyl]-7-(1,3,5-trimethyl-1H-pyrazol-4-yl)-1H-indole-2-carboxylic acid] | < 100 | ≤ 316 | ≥40 |  | > 10000 | 
